Converted amounts (≈) assume the structure as drawn.
Legend:
HIV [1] = test: Anti-HIV assay (NCI FCRF, XTT microculture tetrazolium), infected cells; type: cell-based; details: for anti-HIV activity: in vitro
From the text: (§1) Compounds of formula I were screened for anti-HIV activity at the National Cancer Institute, Frederick Cancer Research Facility, Frederick, Md. (FCRF). The following are the current screening mode operational procedures utilized at FCRF. The protocol consists of 3 areas, (I) preparation of infected cells and distribution to the test plates, (II) preparation of drug dilution plates and distribution to the test plates, and (III) XTT assay procedure. See D. A. Scudiero et al., “A New Simplified Tetrazolium Assay for Cell Growth and Drug Sensitivity in Culture,” Cancer Res., 48, 4827 (1988).
Cells to be infected (a normal lymphoblastoid cell line which expresses CD4) are placed in 50 ml conical centrifuge tubes and treated for 1 hr with 1-2 μg/ml of polybrene at 37° C. The cells are then pelleted for 8 min. ) at 1200 rpm. HIV virus, diluted 1:10 in media (RMP1-1640, 10% human serum or 15% fetal calf serum (FCS), with IL-2, for ATH8 cells only, and antibiotics) is added to provided an MOI of 0.001. Medium alone is added to virus-free control cells. Assuming an infectious virus titer of 10^−4, an MOI of 0.001 represents […] infectious virus particles per 10,000 cells. About 500,000 cells/tube are exposed to 400 μl of the virus dilution. The resultant mixture is incubated for 1 hr at 37° C. in Air-CO2. The infected or uninfected cells are diluted to give 1×10^−4 (with human serum or 2×10^−4 with fetal calf serum) cells/100 μl.
Infected or uninfected cells (100 μl) are distributed to appropriate wells of a 96 well, U-bottom, microtiter plate. Each compound dilution is tested in duplicate with infected cells. Uninfected cells are examined for drug sensitivity in a single well for each dilution of compound. Drug-free control cells, infected and uninfected, are run in triplicate. Wells B2 through G2 served as reagent controls and received medium only. The plates are incubated at 37° C. in Air-CO2 until the drug is added.
Dilution plates (flat bottom 96 well, microtiter plates) are treated overnight with phosphate buffered saline (PBS) or media containing at least 1% FCS or 1% human serum (depending on the medium used in the test), beginning the day before assay. This “blocking” procedure is used to limit the adsorption of drug to the microtiter tray during the dilution process. The wells are filled completely with the blocking solution and allowed to stand at room temperature in a humidified chamber in a hood.
The dilution process is begun by first diluting the test compound 1:20. Blocked, dilution plates are prepared by flicking out the blocking solution and blotting dry on sterile gauze. All wells of each plate are then filled with 225 μl of the appropriate medium using a Cetus liquid handling system. Twenty-five microliters (25 μl) of each 1:20 diluted compound is then manually added to row A of a blocked and filled dilution plate. Four compounds, sufficient to supply two test plates, are added per dilution plate. The four compounds are then serially diluted ten-fold from row A through row H using the Cetus liquid handling system. The starting dilution of each compound in row A is, at this point, 1:200. The dilution plates are kept on ice until needed.
Using a multi-channel pipettor with 6 microtips, 100 μl of each drug dilution is transferred to the test plate which already contains 100 μl of medium plus cells. The final dilution, in the test plate, starts at 1:400 (wells B4 through G4). This dilution (to 0.25% DMSO) prevents the DMSO vehicle from interfering with cell growth. Drug-free, infected or uninfected cells (wells B3 through G3) and reagent controls (B2 through G2) receive medium alone. The final two compounds are then transferred from wells H7 through H12 to a second test plate using the same procedure. Test plates are incubated at 37° C. in Air-CO2 or 7-14 days or until virus controls are lysed as determined macroscopically.
1. […]

[2] = test system: P-388 mouse leukemia cells; test: P-388 mouse leukemia cell culture cytotoxicity assay; type: cell-based; details: cultured P-388 leukemia cells
From the text: The ED50 cytotoxicity concentrations determined for analogs 7a, 9a, 10a, 16a, 16b, 17a and 17b in the P-388 mouse leukemia cell culture assay are given in Table II.

HIV [3] = test system: HIV; design: TI50 against HIV in vitro: unit not given beside the values; details: background; cited from earlier work
HSV-1 = test: Activity against HSV-1
H9/HTLV-IIIB = test: Earlier anti-HIV assay at the Southern Research Institute; type: cell-based; details: MT-2 cells cultured with H9/HTLV-IIIB
Description: An earlier assay carried out at the Southern Research Institute yielded a TI50 of about 200 when MT-2 cells were cultured with H9/HTLV-IIIB.

[4] = test system: normal cells (uninfected); test: Anti-HIV assay (NCI FCRF, XTT), drug sensitivity of uninfected cells; type: cell-based
From the text: as §1
Cells to be infected (a normal lymphoblastoid cell line which expresses CD4) are placed in 50 ml conical centrifuge tubes and treated for 1 hr with 1-2 μg/ml of polybrene at 37° C. The cells are then pelleted for 8 min. ) at 1200 rpm. HIV virus, diluted 1:10 in media (RMP1-1640, 10% human serum or 15% fetal calf serum (FCS), with IL-2, for ATH8 cells only, and antibiotics) is added to provided an MOI of 0.001. Medium alone is added to virus-free control cells. […]
Using a multi-channel pipettor with 6 microtips, 100 μl of each drug dilution is transferred to the test plate which already contains 100 μl of medium plus cells. […] Test plates are incubated at 37° C. in Air-CO2 or 7-14 days or until virus controls are lysed as determined macroscopically. […]

HSV-2 = details: background; cited from earlier work

SMILES | anti-HIV activity (HIV [1]) | cytotoxicity / activity against P-388 leukemia cells [2] | further results
CC(=O)OCC1C=CC(n2cnc3c(O)nc(N)nc32)C1 (stereo not drawn) [acetate ester (R′=Ac) of 14a, (1α,4α)-4-(2-Amino-6-hydroxy-9H-purin-9-yl)-2-cyclopentenyl Acetoxycarbinol] | active |  | inhibition of HIV (HIV [1]; at 6 μg/ml): 28%
Nc1ncnc2c1ncn2C1C=CC(CO)C1 (racemic) [Compound 9a, (±)-(1α,4α)-4-(6-Amino-9H-purin-9-yl)-2-cyclopentenyl-carbinol] | active | cytotoxic | 
Cc1cn(C2CC(CO)C(N=[N+]=[N-])C2)c(=O)[nH]c1=O (stereo not drawn) [carbocyclic analog of AZT] |  |  | activity against HIV (HIV [3]): inactive
Nc1nc(N)c2ncn([C@H]3C=C[C@@H](CO)C3)c2n1 (racemic) [Compound 15a, (±)-(1α,4α)-4-(2,6-Diamino-9H-purin-9-yl)-2-cyclopentenyl-carbinol] | active |  | 
Nc1nc(O)c2nnn(C3C=CC(CO)C3)c2n1 (racemic) [Compound 17a, (±)-(1α,4α)-4-(5-Amino-7-hydroxy-3H-1,2,3-triazolo[4,5-d]-pyrimidin-3-yl)-2-cyclopentenyl carbinol] |  | cytotoxic | 
OCC1C=CC(n2cnc3c(Cl)ncnc32)C1 (racemic) [Compound 7a, (±)-(1α,4α)-4-(6-chloro-9H-purin-9-yl)-2-cyclopentenyl-carbinol] | active | cytotoxic | 
Nc1nc(Cl)c2ncn([C@H]3C=C[C@@H](CO)C3)c2n1 (racemic) [Compound 13a, (±)-(1α,4α)-4-(2-Amino-6-chloro-9H-purin-9-yl)-2-cyclopentenyl carbinol] | active |  | 
Nc1nc(N)c2nnn(C3C=CC(CO)C3)c2n1 (racemic) [Compound 18a, (±)-(1α,4α)-4-(5,7-Diamino-3H-1,2,3-triazolo[4,5-d]pyrimidin-3-yl)-2-cyclopentenyl carbinol] |  | cytotoxic | 
Nc1nc(O)c2ncn(C3C=CC(CO)C3)c2n1 (racemic) [Compound 14a, (±)-(1α,4α)-4-(2-Amino-6-hydroxy-9H-purin-9-yl)-2-cyclopentenyl carbinol] | strongly inhibits |  | activity against HSV-1 (HSV-1): active; TI50 (H9/HTLV-IIIB): about 200; inhibitory concentration (IC50) with respect to normal cells ([4]; calculated from FIG. 2 data): about 100 μg/ml; effective concentration (EC50) with respect to infected cells (HIV [1]; calculated from FIG. 2 data): about 0.15 μg/ml; TI50, general range (HIV [1]; varied with the infected cell line used): 200-400
Nc1ncnc2c1ncn2[C@@H]1C[C@H](CO)[C@@H](O)[C@@H]1O [Cyclaridine] |  |  | TI50 against HIV in vitro (HIV [3]): 10; activity against HSV-2 (HSV-2): highly active
OCC1C=CC(n2cnc3c(S)ncnc32)C1 (racemic) [Compound 10a, (±)-(1α,4α)-4-(6-Mercapto-9H-purin-9-yl)-2-cyclopentenyl-carbinol] | active | cytotoxic | 
Nc1nc(O)c2ncn([C@H]3C=C[C@@H](CO)C3)c2n1 [(−)14a, (1S,4R)-4-(2-Amino-6-hydroxy-9H-Purin-9-yl)-2-cyclopentenyl Carbinol] | highly active |  | IC50 ([4]; Homo sapiens, CCRF-CEM, CEM cells): 189 µg/mL (≈ 764 µM)
Nc1nc(Cl)c2nnn(C3C=CC(CO)C3)c2n1 (racemic) [Compound 16a, (±)-(1α,4α)-4-(5-Amino-7-chloro-3H-1,2,3-triazolo[4,5d]-pyrimidin-3-yl)-2-cyclopentenyl carbinol] |  | cytotoxic | 
